Results from PubChem BioAssay AID1845201 (Molecular Pharmacology Branch, DTP, NCI, 2023).

System: COR L88 complex tumor spheroid viability
Experiment: Anticancer human tumor COR L88 cell line growth inhibition;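 further: compound exposure lasted 7 days before viability readout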;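 on viability, T/C: percent of DMSO vehicle-treated spheroids = 100%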
Settings: for IC50: curve of first compound; for viability, T/C: stronger effect = lower value; active means viability on the fitted dose curve at most 10% of control; inactive means the rest
Outline: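 Single agents and combinations were tested on spheroids built from tumor cells plus HUVEC and hMSC, at half-log dilutions starting at or near clinical Cmax, else 10 microM; final DMSO 0.25% (v/v).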

COc1ccc([C@@H](O)c2cc(-c3ncnc4cc(N5CCOCC5)ccc34)c(F)cc2Cl)nn1 + COc1cc2c(cc1O)CCNC21CSC2c3c(OC(C)=O)c(C)c4c(c3C(COC1=O)N1C(O)C3Cc5cc(C)c(OC)c(O)c5C(C21)N3C)OCO4
0.111 µM: IC50 (second compound 0.000949 µM)
> 10 µM: IC50 (second compound 94.9 pM)
7.58 µM: IC50 (second compound 30 pM)
active: viability, T/C (second compound 0.000949 µM, first compound 1 µM) 1.63% | viability, T/C (second compound 0.000949 µM, first compound 3.16 µM) 0.6% | viability, T/C (second compound 0.000949 µM, first compound 10 µM) 1.43% | viability, T/C (second compound 0.003 µM, first compound 0.0316 µM) 0.95% | viability, T/C (second compound 0.003 µM, first compound 0.1 µM) 1.03% | viability, T/C (second compound 0.003 µM, first compound 0.316 µM) 1.37% | viability, T/C (second compound 0.003 µM, first compound 1 µM) 2.44% | viability, T/C (second compound 0.003 µM, first compound 3.16 µM) 2.37% | viability, T/C (second compound 0.003 µM, first compound 10 µM) 2.01%
1.15 µM: IC50 (second compound 0.0003 µM)
< 0.0316 µM: IC50 (second compound 0.003 µM)
inactive: viability, T/C (second compound 30 pM, first compound 0.0316 µM) 100% | viability, T/C (second compound 30 pM, first compound 0.1 µM) 115% | viability, T/C (second compound 30 pM, first compound 0.316 µM) 93.9% | viability, T/C (second compound 30 pM, first compound 1 µM) 89.2% | viability, T/C (second compound 30 pM, first compound 3.16 µM) 64.6% | viability, T/C (second compound 30 pM, first compound 10 µM) 45.3% | viability, T/C (second compound 94.9 pM, first compound 0.0316 µM) 104% | viability, T/C (second compound 94.9 pM, first compound 0.1 µM) 108% | viability, T/C (second compound 94.9 pM, first compound 0.316 µM) 102% | viability, T/C (second compound 94.9 pM, first compound 1 µM) 67.8% | viability, T/C (second compound 94.9 pM, first compound 3.16 µM) 57.4% | viability, T/C (second compound 94.9 pM, first compound 10 µM) 52.2% | viability, T/C (second compound 0.0003 µM, first compound 0.0316 µM) 71.4% | viability, T/C (second compound 0.0003 µM, first compound 0.1 µM) 63.9% | viability, T/C (second compound 0.0003 µM, first compound 0.316 µM) 61.7% | viability, T/C (second compound 0.0003 µM, first compound 1 µM) 52.5% | viability, T/C (second compound 0.0003 µM, first compound 3.16 µM) 35.8% | viability, T/C (second compound 0.0003 µM, first compound 10 µM) 9.95% | viability, T/C (second compound 0.000949 µM, first compound 0.0316 µM) 63.2% | viability, T/C (second compound 0.000949 µM, first compound 0.1 µM) 51.9% | viability, T/C (second compound 0.000949 µM, first compound 0.316 µM) 22.9%
